This passage reports relative viability results from the supplement of paper PMC10307832.

What all share (test): relative viability (nuclei count vs DMSO), 5 days (fraction); higher = more cells survive
Compound in the assay “Dasatinib + OSI-027”: Cc1nc(Nc2ncc(C(=O)Nc3c(C)cccc3Cl)s2)cc(N2CCN(CCO)CC2)n1 [Dasatinib] + COc1cccc2cc(-c3nc([C@H]4CC[C@H](C(=O)O)CC4)n4ncnc(N)c34)[nH]c12 [OSI-027] (partner 0.5 µM)
A digest of the protocol: (§1)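 A single step with final 0.05% Triton X-100, 1% formaldehyde and 1 ug/ml Hoechst fixed the cells and stained nuclei 5 days after treatment. Lung cancer cell lines in 1536-well plates had been treated by pin tool the day after seeding with one drug alone or a fixed anchor-drug dose plus five library-drug doses (not always all listed) in √10 steps, and nuclei were counted on 4× images. Relative viability is the ratio of nuclei in treated wells to nuclei in vehicle wells, taken as the median of duplicate plates.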

Compound in the assay “Dasatinib + Luminespib”: Cc1nc(Nc2ncc(C(=O)Nc3c(C)cccc3Cl)s2)cc(N2CCN(CCO)CC2)n1 [Dasatinib] + CCNC(=O)c1noc(-c2cc(C(C)C)c(O)cc2O)c1-c1ccc(CN2CCOCC2)cc1 [Luminespib] (partner 0.01 µM)
A digest of the protocol:
as §1

Compound in the assay “Dasatinib + AZD7762”: Cc1nc(Nc2ncc(C(=O)Nc3c(C)cccc3Cl)s2)cc(N2CCN(CCO)CC2)n1 [Dasatinib] + NC(=O)Nc1cc(-c2cccc(F)c2)sc1C(=O)N[C@H]1CCCNC1 [AZD7762] (partner 0.2 µM)
A digest of the protocol:
as §1

Compound in the assay “Dasatinib + Vorinostat”: Cc1nc(Nc2ncc(C(=O)Nc3c(C)cccc3Cl)s2)cc(N2CCN(CCO)CC2)n1 [Dasatinib] + O=C(CCCCCCC(=O)Nc1ccccc1)NO [Vorinostat] (partner 1 µM)
A digest of the protocol:
as §1

In the case of NCI-H2405, the relative viability in the assay with Dasatinib + OSI-027 (first compound 0.005 µM) stood at 0.581; in the assay with Dasatinib + OSI-027 (first compound 0.01581 µM) it was 0.418; with Dasatinib + OSI-027 (first compound 0.05 µM), 0.353; in the assay with Dasatinib + OSI-027 (first compound 0.1581 µM), 0.245; in the assay with Dasatinib + OSI-027 (first compound 0.5 µM), 0.161; in the assay with Dasatinib + Luminespib (first compound 0.005 µM) it was 0.501. Further, the relative viability came out at 0.309 with Dasatinib + Luminespib (first compound 0.01581 µM); 0.309 in the assay with Dasatinib + Luminespib (first compound 0.05 µM); 0.247 with Dasatinib + Luminespib (first compound 0.1581 µM); 0.142 with Dasatinib + Luminespib (first compound 0.5 µM); 0.656 in the assay with Dasatinib + AZD7762 (first compound 0.005 µM); 0.514 with Dasatinib + AZD7762 (first compound 0.01581 µM). For the same cell line, the relative viability with Dasatinib + AZD7762 (first compound 0.05 µM) was determined as 0.368; with Dasatinib + AZD7762 (first compound 0.1581 µM), 0.212; in the assay with Dasatinib + AZD7762 (first compound 0.5 µM), 0.228; with Dasatinib + Vorinostat (first compound 0.005 µM), 0.838; in the assay with Dasatinib + Vorinostat (first compound 0.01581 µM) it was 0.597; with Dasatinib + Vorinostat (first compound 0.05 µM) it was 0.427. Further, the relative viability in the assay with Dasatinib + Vorinostat (first compound 0.1581 µM) turned out to be 0.188; with Dasatinib + Vorinostat (first compound 0.5 µM), 0.227.

NCI-H3122: the relative viability with Dasatinib + OSI-027 (first compound 0.005 µM) amounted to 0.994; in the assay with Dasatinib + OSI-027 (first compound 0.01581 µM), 1.01; with Dasatinib + OSI-027 (first compound 0.05 µM), 1.05; with Dasatinib + OSI-027 (first compound 0.1581 µM), 0.921; with Dasatinib + OSI-027 (first compound 0.5 µM), 0.82; with Dasatinib + Luminespib (first compound 0.005 µM), 0.0996. Further, the relative viability with Dasatinib + Luminespib (first compound 0.01581 µM) was 0.0732; with Dasatinib + Luminespib (first compound 0.05 µM) it was 0.124; with Dasatinib + Luminespib (first compound 0.1581 µM) it was 0.0691; with Dasatinib + Luminespib (first compound 0.5 µM), 0.0615; with Dasatinib + AZD7762 (first compound 0.005 µM), 0.991; with Dasatinib + AZD7762 (first compound 0.01581 µM), 0.982. The relative viability in the assay with Dasatinib + AZD7762 (first compound 0.05 µM) amounted to 0.951; in the assay with Dasatinib + AZD7762 (first compound 0.1581 µM) it was 0.876; in the assay with Dasatinib + AZD7762 (first compound 0.5 µM), 0.643; in the assay with Dasatinib + Vorinostat (first compound 0.005 µM) it was 1.04; with Dasatinib + Vorinostat (first compound 0.01581 µM), 0.949; with Dasatinib + Vorinostat (first compound 0.05 µM), 0.986. In addition, the relative viability in the assay with Dasatinib + Vorinostat (first compound 0.1581 µM) is 1.02; with Dasatinib + Vorinostat (first compound 0.5 µM), 0.614.

Take PC-3 [JPC-3]: the relative viability in the assay with Dasatinib + OSI-027 (first compound 0.005 µM) was 0.764; in the assay with Dasatinib + OSI-027 (first compound 0.01581 µM), 0.739; in the assay with Dasatinib + OSI-027 (first compound 0.05 µM) it was 0.759; with Dasatinib + OSI-027 (first compound 0.1581 µM), 0.73; with Dasatinib + OSI-027 (first compound 0.5 µM), 0.38; with Dasatinib + Luminespib (first compound 0.005 µM) it was 0.741. In addition, the relative viability in the assay with Dasatinib + Luminespib (first compound 0.01581 µM) was 0.646; with Dasatinib + Luminespib (first compound 0.05 µM) it was 0.76; in the assay with Dasatinib + Luminespib (first compound 0.1581 µM) it was 0.576; in the assay with Dasatinib + Luminespib (first compound 0.5 µM), 0.389; with Dasatinib + AZD7762 (first compound 0.005 µM), 0.98; in the assay with Dasatinib + AZD7762 (first compound 0.01581 µM), 1.04. In addition, the relative viability turned out to be 0.755 with Dasatinib + AZD7762 (first compound 0.05 µM); 0.528 in the assay with Dasatinib + AZD7762 (first compound 0.1581 µM); 0.427 with Dasatinib + AZD7762 (first compound 0.5 µM); 0.86 with Dasatinib + Vorinostat (first compound 0.005 µM); 0.953 with Dasatinib + Vorinostat (first compound 0.01581 µM); 0.787 in the assay with Dasatinib + Vorinostat (first compound 0.05 µM). Further, the relative viability amounted to 0.522 in the assay with Dasatinib + Vorinostat (first compound 0.1581 µM) and 0.475 with Dasatinib + Vorinostat (first compound 0.5 µM).

Take PC-14: the relative viability amounted to 0.99 with Dasatinib + OSI-027 (first compound 0.005 µM); 0.772 in the assay with Dasatinib + OSI-027 (first compound 0.01581 µM); 0.679 in the assay with Dasatinib + OSI-027 (first compound 0.05 µM); 0.384 with Dasatinib + OSI-027 (first compound 0.1581 µM); 0.0679 in the assay with Dasatinib + OSI-027 (first compound 0.5 µM); 0.237 with Dasatinib + Luminespib (first compound 0.005 µM). Also, the relative viability was 0.113 with Dasatinib + Luminespib (first compound 0.01581 µM); 0.152 with Dasatinib + Luminespib (first compound 0.05 µM); 0.158 in the assay with Dasatinib + Luminespib (first compound 0.1581 µM); 0.105 with Dasatinib + Luminespib (first compound 0.5 µM); 0.405 with Dasatinib + AZD7762 (first compound 0.005 µM); 0.468 with Dasatinib + AZD7762 (first compound 0.01581 µM). The relative viability came out at 0.34 in the assay with Dasatinib + AZD7762 (first compound 0.05 µM); 0.401 with Dasatinib + AZD7762 (first compound 0.1581 µM); 0.112 in the assay with Dasatinib + AZD7762 (first compound 0.5 µM); 0.653 with Dasatinib + Vorinostat (first compound 0.005 µM); 0.699 with Dasatinib + Vorinostat (first compound 0.01581 µM); 0.562 with Dasatinib + Vorinostat (first compound 0.05 µM). In addition, the relative viability in the assay with Dasatinib + Vorinostat (first compound 0.1581 µM) was 0.318; with Dasatinib + Vorinostat (first compound 0.5 µM), 0.0563.

In the case of RERF-LC-KJ, the relative viability with Dasatinib + OSI-027 (first compound 0.005 µM) stood at 0.576; with Dasatinib + OSI-027 (first compound 0.01581 µM), 0.475; with Dasatinib + OSI-027 (first compound 0.05 µM) it was 0.514; with Dasatinib + OSI-027 (first compound 0.1581 µM), 0.382; with Dasatinib + OSI-027 (first compound 0.5 µM) it was 0.376; with Dasatinib + Luminespib (first compound 0.005 µM), 1.3. In addition, the relative viability in the assay with Dasatinib + Luminespib (first compound 0.01581 µM) came to 1.05; with Dasatinib + Luminespib (first compound 0.05 µM), 1.06; with Dasatinib + Luminespib (first compound 0.1581 µM), 0.982; with Dasatinib + Luminespib (first compound 0.5 µM) it was 0.993; with Dasatinib + AZD7762 (first compound 0.005 µM), 1.06; in the assay with Dasatinib + AZD7762 (first compound 0.01581 µM), 0.824. The relative viability came to 0.889 with Dasatinib + AZD7762 (first compound 0.05 µM); 0.761 with Dasatinib + AZD7762 (first compound 0.1581 µM); 0.6 with Dasatinib + AZD7762 (first compound 0.5 µM); 0.667 with Dasatinib + Vorinostat (first compound 0.005 µM); 0.602 in the assay with Dasatinib + Vorinostat (first compound 0.01581 µM); 0.585 with Dasatinib + Vorinostat (first compound 0.05 µM). For the same cell line, the results for the relative viability in the assay with Dasatinib + Vorinostat (first compound 0.1581 µM) and with Dasatinib + Vorinostat (first compound 0.5 µM) were 0.491 and 0.416, respectively.

As for SW 900, the relative viability with Dasatinib + OSI-027 (first compound 0.005 µM) is 0.588; in the assay with Dasatinib + OSI-027 (first compound 0.01581 µM), 0.547; with Dasatinib + OSI-027 (first compound 0.05 µM), 0.481; with Dasatinib + OSI-027 (first compound 0.1581 µM), 0.311; with Dasatinib + OSI-027 (first compound 0.5 µM), 0.14; with Dasatinib + Luminespib (first compound 0.005 µM), 0.141. Further, the relative viability is 0.154 with Dasatinib + Luminespib (first compound 0.01581 µM); 0.159 with Dasatinib + Luminespib (first compound 0.05 µM); 0.111 with Dasatinib + Luminespib (first compound 0.1581 µM); 0.103 with Dasatinib + Luminespib (first compound 0.5 µM); 0.592 with Dasatinib + AZD7762 (first compound 0.005 µM); 0.534 in the assay with Dasatinib + AZD7762 (first compound 0.01581 µM). Moreover, the relative viability in the assay with Dasatinib + AZD7762 (first compound 0.05 µM) came out at 0.371; in the assay with Dasatinib + AZD7762 (first compound 0.1581 µM) it was 0.36; with Dasatinib + AZD7762 (first compound 0.5 µM) it was 0.147; in the assay with Dasatinib + Vorinostat (first compound 0.005 µM), 0.356; with Dasatinib + Vorinostat (first compound 0.01581 µM), 0.282; in the assay with Dasatinib + Vorinostat (first compound 0.05 µM), 0.289. Further, the relative viability was determined as 0.163 with Dasatinib + Vorinostat (first compound 0.1581 µM) and 0.192 with Dasatinib + Vorinostat (first compound 0.5 µM).
